Source: ChEMBL document CHEMBL4330055, “Development of Inhibitors of the Programmed Cell Death-1/Programmed Cell Death-Ligand 1 Signaling Pathway” (J Med Chem, 2019)
Where a SMILES comes first, the peptide text is derived from it. Bridges are numbered along the chain shown (N, C = ends).

The molecules below were run against Programmed cell death 1 ligand 1 (Mus musculus) (UniProt Q9EP73) (assay: Inhibition of PDL1 in C57BL6 mouse splenocytes assessed as protection against ant-CD3/CD28-stimulated cell proliferation at 100 nM after 4 hrs by CFSE-based FACS analysis relative to control).
Programmed cell death 1 ligand 1 (Mus musculus), sequence (Q9EP73 whole entry): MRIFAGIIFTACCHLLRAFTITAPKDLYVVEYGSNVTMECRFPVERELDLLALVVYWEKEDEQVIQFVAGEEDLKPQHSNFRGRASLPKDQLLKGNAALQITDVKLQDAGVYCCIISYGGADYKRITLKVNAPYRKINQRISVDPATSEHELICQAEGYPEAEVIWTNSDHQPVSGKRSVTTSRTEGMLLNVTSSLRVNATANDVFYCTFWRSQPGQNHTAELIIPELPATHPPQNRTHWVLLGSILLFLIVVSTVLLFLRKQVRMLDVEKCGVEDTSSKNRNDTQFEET

Molecule	inhibition
C[C@@H](O)[C@@H]1NC(=O)COCCOCCNC(=O)[C@@H](CO)NC(=O)N[C@H](C(N)=O)C(=O)NNC1=O	94%
C[C@@H](O)[C@H](N)c1noc([C@H](Cc2ccc(O)cc2)NC(=O)N2CCC[C@H]2C(=O)O)n1	99%
NCCCC[C@H](NC(=O)N[C@@H](CC(N)=O)C(=O)NNC(=O)[C@@H](N)CO)C(=O)O	87%
C[C@@H](O)[C@@H]1NC(=O)N[C@@H](C(N)=O)C(=O)NNC(=O)[C@@H](CO)NC(=O)COCCOCCNC1=O	95%
C[C@@H](O)[C@H](N)c1nnc([C@H](CCC(N)=O)NC(=O)N[C@@H](CO)C(=O)O)o1	92%
C[C@@H](O)[C@@H]1C(=O)N[C@H](CO)C(=O)N[C@H](C(=O)N[C@@H](CO)C(=O)N[C@@H](Cc2ccccc2)C(N)=O)CCCCNC(=O)CC[C@H](NC(=O)[C@@H](N)CO)C(=O)N1C	82%
C[C@@H](O)[C@@H](NC(=O)N[C@@H](CC(N)=O)c1nc([C@@H](N)CO)no1)C(=O)O	97%
C[C@@H](O)C(NC(=O)[C@H](CCC(=O)O)NC(=O)[C@@H](N)CO)C(=O)N[C@H](CO)C(=O)N[C@H](CCCCN)C(=O)N[C@H](CO)CN[C@H](Cc1ccccc1)C(N)=O (single isomer, unassigned)	81%
NC(=O)C[C@H](NC(=O)[C@@H]1C[C@H](O)CN1)c1nc(N2CCCC2)no1	91%
COCCNC(=O)CC[C@H](NS(=O)(=O)C1CC1)c1nnc(-c2ccccc2OC)o1	97%

Each molecule was assayed against T1, Programmed cell death 1 ligand 1 (Homo sapiens, UniProt Q9NZQ7) (assay: Binding affinity to Fc-labeled human PDL1 expressed in Escherichia coli by SPR spectroscopy).
T1 sequence (Q9NZQ7 whole entry): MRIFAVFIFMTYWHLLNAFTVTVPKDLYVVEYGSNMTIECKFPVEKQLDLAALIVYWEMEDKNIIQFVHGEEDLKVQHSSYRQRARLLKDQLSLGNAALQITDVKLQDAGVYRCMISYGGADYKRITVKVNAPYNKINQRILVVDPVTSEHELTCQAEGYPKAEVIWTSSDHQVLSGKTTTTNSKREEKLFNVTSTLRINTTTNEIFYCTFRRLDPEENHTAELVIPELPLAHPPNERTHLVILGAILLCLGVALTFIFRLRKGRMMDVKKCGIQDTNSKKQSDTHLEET

Molecule	Kd
C[C@@H](O)[C@H](NC(=O)[C@@H]1CCCN1C(=O)[C@H](CCCCN)NC(=O)[C@H](CO)NC(=O)[C@H](Cc1ccc(O)cc1)NC(=O)[C@@H](N)CC(N)=O)C(=O)N[C@@H](CC(=O)O)C(=O)N[C@@H](CCCNC(=N)N)C(=O)N[C@@H](CCC(N)=O)C(=O)N[C@@H](Cc1ccc(O)cc1)C(=O)N[C@@H](Cc1cnc[nH]1)C(=O)N[C@@H](Cc1ccccc1)C(=O)O	510 nM
H-MRNRERYPKPYY-OH	22000 nM
H-KHAHHTHNLRLP-OH	1130 nM

The molecules below were run against T1, Programmed cell death 1 ligand 1 (assay: Binding affinity to biotinylated PDL1 (unknown origin) expressed in Escherichia coli OmpX membrane after 45 mins by SAPE-fluorescence based flow cytometry).
Assay type: cell membranes

Molecule	Kd
C[C@H](NC(=O)[C@H](Cc1ccc(O)cc1)NC(=O)[C@H](CCC(N)=O)NC(=O)CNC(=O)[C@@H](N)CO)C(=O)N[C@@H](CO)C(=O)N[C@@H](Cc1ccc(O)cc1)C(=O)N[C@@H](Cc1cnc[nH]1)C(=O)N[C@@H](CS)C(=O)N[C@@H](Cc1c[nH]c2ccccc12)C(=O)N[C@@H](CS)C(=O)N[C@@H](Cc1c[nH]c2ccccc12)C(=O)N[C@@H](CCCNC(=N)N)C(=O)N[C@@H](CC(=O)O)C(=O)N1CCC[C@H]1C(=O)NCC(=O)N[C@@H](CCCNC(=N)N)C(=O)N[C@@H](CO)C(=O)NCC(=O)NCC(=O)N[C@@H](CO)C(=O)N[C@@H](CCCCN)C(=O)O (H-SGQYASYHCWCWRDPGRSGGSK-OH)	94 nM

Each molecule was assayed against T2, Programmed cell death protein 1/Programmed cell death 1 ligand 1 (Homo sapiens, UniProt Q15116+Q9NZQ7) (assay: Inhibition of PD1/PDL1 interaction in human jurkat cells co-expressing TCR promoter assessed as TCR activation by luciferase reporter gene assay).
Assay type: cell-based

T2 sequence (Q15116 whole entry): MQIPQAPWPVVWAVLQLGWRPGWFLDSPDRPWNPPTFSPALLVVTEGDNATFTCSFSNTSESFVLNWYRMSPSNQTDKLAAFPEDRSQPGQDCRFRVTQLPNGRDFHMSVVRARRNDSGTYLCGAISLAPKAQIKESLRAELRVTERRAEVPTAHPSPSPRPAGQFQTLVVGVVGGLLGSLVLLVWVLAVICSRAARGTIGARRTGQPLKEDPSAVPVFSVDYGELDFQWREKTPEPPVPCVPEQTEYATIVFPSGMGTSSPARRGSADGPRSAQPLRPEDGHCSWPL
T2 sequence (Q9NZQ7 whole entry): as the sequence (Q9NZQ7 whole entry) above

Molecule	EC50
CC[C@H](C)[C@@H]1NC(=O)[C@H](CC(C)C)NC(=O)[C@H](Cc2ccccc2)NC(=O)CSC[C@@H](C(=O)NCC(N)=O)NC(=O)[C@H](CCCNC(=N)N)NC(=O)[C@H](Cc2ccccc2)NC(=O)[C@H](C(C)C)NC(=O)[C@H](CCCNC(=N)N)NC(=O)[C@H](CC(=O)O)NC(=O)[C@H](CCCNC(=N)N)NC(=O)[C@H]([C@@H](C)CC)NC(=O)[C@H](C(C)C)NC1=O ({CH2CO}-FLIVIRDRVFRCG-NH2; thioether N-12)	6300 nM

These molecules were tested against T2, Programmed cell death protein 1/Programmed cell death 1 ligand 1 (assay: Inhibition of PD1/PDL1 (unknown origin) interaction at 10 uM after 15 mins by HTRF assay relative to control).
Assay type: protein-complex assay

Molecule	inhibition
COc1ccc(Nc2cc(C(=O)Nc3ccc(Oc4ccccc4)cc3)ccn2)cc1	36%

What follows are molecules tested against T2, Programmed cell death protein 1/Programmed cell death 1 ligand 1 (assay: Inhibition of PD1/PDL1 (unknown origin) at 500 uM after 15 mins by HTRF assay relative to control).
Assay type: protein-complex assay

Molecule	inhibition
CN(C)CCOc1ccc([N+](=O)[O-])c(OC(=O)N(C)C)c1	43%

The molecules below were run against T3, V-type immunoglobulin domain-containing suppressor of T-cell activation (Homo sapiens) (UniProt Q9H7M9) (assay: Inhibition of VISTA signaling in human PBMC assessed as IFNgamma release at 100 nM after 30 mins by ELISA).
T3 sequence (whole entry): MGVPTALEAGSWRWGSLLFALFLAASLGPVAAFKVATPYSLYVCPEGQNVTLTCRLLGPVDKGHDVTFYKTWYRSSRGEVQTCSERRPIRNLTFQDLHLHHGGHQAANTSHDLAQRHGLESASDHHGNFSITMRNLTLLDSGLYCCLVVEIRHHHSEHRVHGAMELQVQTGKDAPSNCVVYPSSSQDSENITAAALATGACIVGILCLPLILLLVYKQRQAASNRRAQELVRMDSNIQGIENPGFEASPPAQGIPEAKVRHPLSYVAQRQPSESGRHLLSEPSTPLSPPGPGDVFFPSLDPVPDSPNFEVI

Molecule	inhibition
C[C@@H](O)[C@H](NC(=O)N[C@@H](CC(N)=O)c1nc([C@@H](N)Cc2ccccc2)no1)C(=O)O	99%
C[C@@H](O)[C@@H](NC(=O)N[C@@H](CC(N)=O)c1nc([C@@H](N)CO)no1)C(=O)O	> 70%

Each molecule was assayed against T2, Programmed cell death protein 1/Programmed cell death 1 ligand 1 (assay: Inhibition of PD1/PDL1 (unknown origin) interaction by HTRF assay).
Assay type: protein-complex assay

Molecule	IC50
Cc1c(/C=C/c2ncc(CNC(CO)C(=O)O)cc2C(F)(F)F)cccc1-c1ccc2c(c1)OCCO2 (configuration not stated)	36 nM

Each molecule was assayed against T2, Programmed cell death protein 1/Programmed cell death 1 ligand 1 (assay: Inhibition of recombinant human PD1 (25 to 167 residues)/human PDL1 (19 to 238 residues) interaction after 40 mins by HTRF assay).
Assay type: protein-complex assay

Molecule	IC50
Cc1c(-c2ccccc2)cccc1-c1cc2ccc(CNCCO)cn2n1	≤ 100 nM
N#Cc1c(Nc2nccc3cc(CNCCO)cnc23)cccc1C1=CCCCC1	≤ 100 nM
Cc1c(-c2ccccc2)cccc1-n1cc2c(n1)CNCC2	≤ 100 nM
N#Cc1c(-c2ccc3c(c2)OCCO3)cccc1N1CCC(NC2CCCOC2)CC1 (configuration not stated)	≤ 100 nM
COc1cc2oc(-c3cccc(-c4ccccc4)c3C)nc2cc1CNCCO	≤ 100 nM
N#Cc1c(NC(=O)c2nc3c(s2)CNCC3)cccc1-c1ccc2c(c1)OCC2	≤ 100 nM
Cc1cc(C(=O)Nc2cccc(-c3ccccc3)c2C)ncc1CNCCO	≤ 100 nM
